Results from patent US5663159A, “Prodrugs of phosphonates” (Institute of Organic Chemistry and Biochemistry of the …, priority 1994, dated 1997).
In brackets after ≈: the same amount, converted by molar mass. Entries after “also recorded” stand apart in the source; their conditions may differ. Where a name gives a salt, the structure may show the parent alone. Read-outs that look alike come from different tables or passages of the source.

How the values were obtained:
HSV-2 (G STRAIN) = assay: In vitro activity of PMEA prodrugs against HSV-2 (G strain), plaque reduction; format: cell-based; conditions: for IC50: Human alphaherpesvirus 2, dose which gives a 50% reduction of plaque formation, read-out: ID50 (the source's name); for ID50: dose which gives a 50% reduction of plaque formation
Excerpt: PRODRUGS AGAINST HSV-2 (G STRAIN)
^a DOSE WHICH GIVES A 50% REDUCTION OF PLACQUE FORMATION

[1] = tested on: herpes simplex virus type 1; conditions: mice in vivo; including herpetic keratitis caused by a TK^- mutant; cited from earlier work
[2] = tested on: herpes simplex virus type 1; conditions: rabbits in vivo; including herpetic keratitis caused by a TK^- mutant; cited from earlier work
[3] = tested on: herpes simplex virus, type 2 (HSV-2); conditions: literature; cited from earlier work
P388 leukemia = conditions: murine tumor model; cited from earlier work
[4] = tested on: herpes simplex virus, type 1 (HSV-1); conditions: literature; cited from earlier work
vaccinia virus = conditions: literature; cited from earlier work
[5] = tested on: bovid herpesvirus type 1 (infectious bovine rhinotracheitis virus, BHV-1); conditions: literature; cited from earlier work
[6] = tested on: murine sarcoma virus (MSV); conditions: literature; cited from earlier work
[7] = tested on: human cytomegalovirus (HCMV); conditions: literature; cited from earlier work
[8] = tested on: equid herpesviruse type 1 (equine abortion virus, EHV-1); conditions: literature; cited from earlier work
adenovirus = conditions: literature; cited from earlier work
[9] = tested on: phocid herpesvirus type 1 (seal herpesvirus, SeHV); conditions: literature; cited from earlier work
[10] = tested on: African swine fever (ASF) virus; conditions: literature; cited from earlier work
[11] = tested on: suid herpesvirus type 1 (SHV-1, or pseudorabies virus or Aujeszky's disease virus); conditions: literature; cited from earlier work
[12] = tested on: varicella zoster virus (VZV); conditions: literature; cited from earlier work
[13] = tested on: simian herpesvirus platyrrhinae (HVP); conditions: literature; cited from earlier work
[14] = tested on: thymidine kinase-deficient (TK^-) mutants of herpes simplex; conditions: literature; cited from earlier work
B16 melanoma = conditions: murine tumor model; cited from earlier work
HSV 1 = conditions: in vivo, mice; more potent than acyclovir; cited from earlier work
herpes viruses = conditions: cited from earlier work
[15] = tested on: human immunodeficiency virus (HIV); conditions: literature, cited from earlier work
[16] = tested on: Rauscher murine leukemia virus (R-MuLV); conditions: mice; vs 3'-azido-3'-deoxythymidine (AZT); cited from earlier work
[17] = tested on: Rauscher murine leukemia virus (R-MuLV); conditions: cited from earlier work
[18] = tested on: murine cytomegalovirus (MCMV); conditions: cited from earlier work
[19] = Toxicity in the in vitro HSV-2 test

With `Nc1ncnc2c1ncn2CCOCP(=O)(O)OCCCO` [Example 22, PMEA, 3-hydroxypropanyl ester, (sodium salt)] as the compound, how does the IC50 (HSV-2 (G STRAIN)) read?
The IC50 was 110 µg/mL.

And the CC50 (in vitro)?
Its CC50 is > 166 µg/mL.

Which “efficacy against local and systemic HSV-1 infections” value [1] does the source give for `Nc1ncnc2c1ncn2C[C@@H](CO)OCP(=O)(O)O` [(S)-HPMPA, (S)-9-((3-hydroxy-2-phosphonylmethoxy)propyl)adenine] here?
Its value is “effective”.

And the “efficacy against local and systemic HSV-1 infections” value [2]?
The value was “effective”.

And the “activity against HSV-2” value [3]?
Its value is “potent and selective activity; also recorded: active”.

And the “activity against intraperitoneal P388 leukemia” value (P388 leukemia)?
The value was “active”.

What about the “activity against HSV-1” value [4] of the same compound?
The value was “potent and selective activity; also recorded: active”.

What about the “activity against vaccinia virus” value (vaccinia virus) of the same compound?
The value was “potent and selective activity; also recorded: active”.

What about the “activity against BHV-1” value [5] of the same compound?
Its value is “potent and selective activity”.

What about the “activity against MSV” value [6] of the same compound?
Its value is “potent and selective activity”.

And the “activity against HCMV” value [7]?
The value was “potent and selective activity”.

And the “activity against EHV-1” value [8]?
Its value is “potent and selective activity”.

What about the activity against adenovirus (adenovirus) of the same compound?
The activity against adenovirus was “potent and selective activity; also recorded: active”.

And the “activity against SeHV” value [9]?
Its value is “potent and selective activity”.

And the “activity against ASF virus” value [10]?
The value was “potent and selective activity”.

And the “activity against SHV-1” value [11]?
The value was “potent and selective activity”.

And the “activity against VZV” value [12]?
The value was “potent and selective activity; also recorded: active”.

And the “activity against HVP” value [13]?
The value was “potent and selective activity”.

And the “activity against TK^- mutants of herpes simplex” value [14]?
The value was “potent and selective activity”.

For `CC(C)(C)C(=O)OCOP(=O)(COCCn1cnc2c(N)ncnc21)OCOC(=O)C(C)(C)C` [Example 9, PMEA, di(pivaloyloxymethyl ester)], which IC50 (HSV-2 (G STRAIN)) is on record?
The IC50 was 0.28 µg/mL (≈ 0.558 µM).

What about the CC50 (in vitro) of the same compound?
The CC50 was 100 µg/mL (≈ 199 µM).

For `Nc1nc2c(ncn2CCOCP(=O)(O)O)c(=O)[nH]1` [PMEG], which “activity against B16 melanoma” value (B16 melanoma) is on record?
The value was “active”.

And the “activity against HSV-2” value [3]?
Its value is “active”.

And the “activity against intraperitoneal P388 leukemia” value (P388 leukemia)?
Its value is “active”.

What about the “activity against HSV-1” value [4] of the same compound?
Its value is “active”.

What about the “potency relative to acyclovir against HSV 1 infection” value (HSV 1) of the same compound?
The value was > 50 fold.

What about the “in vitro potency against herpes viruses” value (herpes viruses) of the same compound?
Its value is “exceptionally potent”.

For `Nc1nc(N)c2ncn(C[C@@H](CO)OCP(=O)(O)O)c2n1` [(S)-HPMPDAP], which “activity against HSV-2” value [3] is on record?
Its value is “active”.

And the “activity against HSV-1” value [4]?
The value was “active”.

Which “activity against HIV” value ([15]; listed as PMEA) does the source give for `Nc1ncnc2c1ncn2CCOCP(=O)(O)O` [Example 1, 9-(2-Phosphonylmethoxy)ethyladenine] here?
Its value is “active; also recorded: good in vitro activity”.

What about the “potency in vivo relative to AZT in the treatment of R-MuLV” value [16] of the same compound?
Its value is “more potent in vivo”.

And the “activity against HSV-2” value [3]?
The value was “active”.

And the “activity against intraperitoneal P388 leukemia” value (P388 leukemia)?
Its value is “active”.

What about the “activity against HSV-1” value [4] of the same compound?
The value was “active”.

And the “activity against HCMV” value [7]?
The value was “in vitro activity”.

And the IC50 (HSV-2 (G STRAIN))?
Its IC50 is 39 µg/mL (≈ 143 µM).

And the “in vitro activity against R-MuLV” value [17]?
Its value is “good in vitro activity”.

And the CC50 (in vitro)?
Its CC50 is > 166 µg/mL.

And the “antiviral effect in vivo against MCMV” value [18]?
Its value is “significant antiviral effect”.

Which “activity against HIV” value [15] does the source give for `Nc1ncc2ncn(CCOCP(=O)(O)O)c2n1` [PMEMAP] here?
Its value is “active”.

Which results are given for `CC(C)OP(=O)(COCCn1cnc2c(N)ncnc21)Oc1ccccc1` (centres unmarked) [Example 16, PMEA, (mono isopropyl, monophenyl) ester]?
ID50 (HSV-2 (G STRAIN)): > 100 µg/mL; CC50 [19]: 100 µg/mL (≈ 256 µM)

With `Nc1ccn(C[C@@H](CO)OCP(=O)(O)O)c(=O)n1` [(S)-HPMPC] as the compound, how does the “activity against HSV-2” value [3] read?
Its value is “active”.

What about the “activity against HSV-1” value [4] of the same compound?
The value was “active”.

And the “activity against HCMV” value [7]?
The value was “active”.

Which “activity against HSV-2” value [3] does the source give for `Nc1nc2c(ncn2C[C@@H](CO)OCP(=O)(O)O)c(=O)[nH]1` [(S)-HPMPG] here?
Its value is “active”.

What about the “activity against HSV-1” value [4] of the same compound?
Its value is “active”.

With `Nc1ncnc2c1ncn2C[C@H]1COP(=O)(O)CO1` [(S)-cyclic HPMPA] as the compound, how does the “activity against HSV-2” value [3] read?
Its value is “active”.

What about the “activity against HSV-1” value [4] of the same compound?
Its value is “active”.

What about the “activity against vaccinia virus” value (vaccinia virus) of the same compound?
The value was “active”.

What about the activity against adenovirus (adenovirus) of the same compound?
Its activity against adenovirus is “active”.

And the “activity against VZV” value [12]?
The value was “active”.

For `Nc1nc(N)c2ncn(CCOCP(=O)(O)O)c2n1` [PMEDAP], which “activity against HIV” value [15] is on record?
The value was “active”.

What about the “activity against HSV-2” value [3] of the same compound?
Its value is “active”.

And the “activity against HSV-1” value [4]?
Its value is “active”.

For `CCC(=O)OCOP(=O)(COCCn1cnc2c(N)ncnc21)OCOC(=O)CC` [Example 12, PMEA, di-(propionyloxymethyl ester)], which IC50 (HSV-2 (G STRAIN)) is on record?
The IC50 was 0.17 µg/mL (≈ 0.382 µM).

And the CC50 (in vitro)?
Its CC50 is 100 µg/mL (≈ 225 µM).

With `Nc1ncnc2c1ncn2CCOCP(=O)(O)Oc1ccccc1` [Example 34, PMEA, monophenyl ester (sodium salt)] as the compound, how does the ID50 (HSV-2 (G STRAIN)) read?
Its ID50 is 42 µg/mL.

What about the CC50 [19] of the same compound?
Its CC50 is > 166 µg/mL.

What does the source list for `CC(C)(C)C(=O)OCOP(=O)(O)COCCn1cnc2c(N)ncnc21` [Example 15, PMEA, mono pivaloyloxymethyl ester]?
IC50 (HSV-2 (G STRAIN)): 8.1 µg/mL (≈ 20.9 µM); CC50 [19]: 100 µg/mL (≈ 258 µM)

For `Nc1ncnc2c1ncn2CCOCP(=O)(Oc1ccccc1)Oc1ccccc1` [Example 35, PMEA, diphenyl ester], which ID50 (HSV-2 (G STRAIN)) is on record?
Its ID50 is 34 µg/mL (≈ 79.9 µM).

And the CC50 [19]?
The CC50 was > 166 µg/mL.

What does the source list for `CC(C)C(=O)OCOP(=O)(COCCn1cnc2c(N)ncnc21)OCOC(=O)C(C)C` [Example 13, PMEA, di-(isobutyrloxymethyl ester)]?
IC50 (HSV-2 (G STRAIN)): < 0.1 µg/mL; CC50 (in vitro): 100 µg/mL (≈ 211 µM)
